Measurements as given in PMC7037273, “Phytochemical Screening and Antiprotozoal Effects of the Methanolic Berberis Vulgaris and Acetonic Rhus Coriaria Extracts” (Molecules, 2020).
Converted amounts (≈) assume the structure as drawn.

Assays:
HFF cells = assay type: cell-based; settings: human, 24 h, 100 µM
Method: (§1) Cultures of Human foreskin fibroblast (HFF; HFF-1 ATCC® SCRC-1041™), Madin–Darby bovine kidney (MDBK; ECACC) and mouse embryonic fibroblast (NIH/3T3; ATCC® CRL-1658™) cell lines were retrieved from −80 °C stock and cultured continuously at 37 °C under atmosphere 5% CO2 in our laboratory. The NIH/3T3 and HFF cell lines were maintained in Dulbecco Modified Eagle’s Medium (DMEM; Gibco, Grand Island, NY, USA), while MDBK cell line grown in Minimum Essential Medium Eagle (MEM; Gibco). Each medium was treated with 1% glutamine, 10% fetal bovine serum and 0.5% penicillin/streptomycin (Gibco). Every 72 to 96 h, the medium was replaced, and once 80% confluence was reached, the cell collection was performed by sub-culture protocol. To confirm the absence of mycoplasma contamination, 4,6-diamidino-2-phenylindole dihydrochloride (Sigma-Aldrich) stain was used [9].
(§2) The cell viability test was conducted in a 96-well plate as described elsewhere [4, 9, 51, 52]. Briefly, an aliquot of (100 µL) cells was implanted at a concentration of 5 × 10^4 cells/mL in DMEM or MEM with fetal bovine serum and incubated overnight under atmosphere 5% CO2 at 37 °C for attachment. […] After a 24-h incubation, Cell Counting Kits-8 (CCK-8) (10 µL) was added per well followed by the incubation of the plate for another 3 hours and a microplate reader was used to measure the absorbance at 450 nm.

NIH/3T3 cells = settings: mouse, 24 h, 100 µM
Method: as §1, §2

MDBK cells = experiment: cells; assay type: cell-based, bovine
Method: as §1, §2

B. microti = experiment: in vivo chemotherapeutic efficacy in B. microti-infected BALB/c mice
Method: MEBV and AERC were examined for their in vivo chemotherapeutic efficacy using B. microti-infected BALB/c mice according to a procedure described elsewhere. Briefly, twenty-five mice were placed in an environment free from pathogens with 22 °C temperature and adjusted humidity and under 12 h light and 12 h darkness and randomly distributed into five groups. All mice in groups 2 through 5 obtained 500 μL of 1 × 10^7 B. microti-iRBC by intraperitoneal (i.p.) injection. Group 1 served as a negative control and was neither infected nor treated. At 1% parasitemia, drug treatment of the mice […]. continuing for five days. Group 2 act as a positive control group and received 95% double-distilled water (DDW) and 5% DMSO. Groups 3 and 4 administered 150 mg/kg body weight (BW) of MEBV and AERC by the oral route, respectively. […] Furthermore, the hematological parameters, including HGB, RBCs, and HCT percentage were examined every four days using an automatic hematology analyzer (Celltac α MEK-6450, Nihon Kohden, Tokyo, Japan) to detect the effect of MEBV and AERC on the retrogression of anemia related to Babesia infection. […]

[1] = system: L. donovani promastigotes; parameters: method as in PMID 2360830; settings: read-out: IC50 leishmanicidal effect; cited from earlier work
T. vaginalis = system: T. vaginalis; parameters: method as in PMID 29390009; settings: cited from earlier work
[2] = system: Trypanosoma brucei brucei; parameters: method as in PMID 28654013; settings: cited from earlier work

Structure (SMILES): O=C1C(O)=C([C@H]2CC[C@H](c3ccc(Cl)cc3)CC2)C(=O)c2ccccc21 [ATV, atovaquone]
- effect on cell viability (HFF cells): neither DMA nor ATV (final concentration 100 µM) restricted the viability
- effect on cell viability (NIH/3T3 cells): neither DMA nor ATV (final concentration 100 µM) restricted the viability
- effect on cell viability (MDBK cells; bovine, 24 h, 100 µM): neither DMA nor ATV (final concentration 100 µM) restricted the viability

Structure (SMILES): CC(C)/N=c1\cc2n(-c3ccc(Cl)cc3)c3ccccc3nc-2cc1Nc1ccc(Cl)cc1 [CLF, clofazimine]
- EC50 (MDBK cells; Bos taurus, MDBK cells, reference drug, read-out: EC50 MDBK cell viability): 34 ± 3.4 µM

Structure (SMILES): CC(=O)NCC(=O)O.CC(=O)NCC(=O)O.N=C(N)c1ccc(N=NNc2ccc(C(=N)N)cc2)cc1 [DMA, diminazene aceturate]
- peak parasitemia level (B. microti; 25 mg/kg BW, 5 days (day 4 to 8 p.i.), B. microti-infected BALB/c mice): 5%
- inhibition of B. microti multiplication (B. microti; 25 mg/kg, eighth day post-infection): 92%

Structure (SMILES): COc1ccc2cc3[n+](cc2c1OC)CCc1cc2c(cc1-3)OCO2 [berberine]
- IC50 [1]: 7.1 µM

Structure (SMILES): C=CCc1ccc(OC)c(OC)c1 [methyleugenol]
- IC50 growth of T. vaginalis (T. vaginalis): 100 µg/mL

Structure (SMILES): CC(C)=CCCC(C)c1ccc(C)cc1 (stereo not drawn) [α-curcumene]
- IC50 growth of T. vaginalis (T. vaginalis): 100 µg/mL
- IC50 antitrypanosomal activity [2]: 13.38 µg/mL (≈ 66.1 µM)

Structure (SMILES): C=C1CC/C=C(\C)CC[C@@H]2[C@@H]1CC2(C)C [β-caryophyllene]
- IC50 growth of T. vaginalis (T. vaginalis): 100 µg/mL
